Measurements: US20160213657A1, “PHARMACEUTICAL COMPOSITION FOR TREATMENT AND/OR PREVENTION OF PULMONARY DISEASE” (UBE INDUSTRIES, LTD., priority 2013, published 2016)
Where two headings read alike, the source gives them in different places.

What was measured:
human EP2 receptor = human EP2 receptor (Homo sapiens, UniProt P43116); experiment: Measurement of EP2 receptor binding action ([3H]prostaglandin E2 displacement)
Description: Measurement of EP2 Receptor Binding Action
The membrane fraction was collected on glass fiber filter paper (GF/B, manufactured by Whatman) using a cell harvester (M30R, manufactured by Brandel), and after washing with a buffer solution (10 mM MES-KOH (pH 6.0), 10 mM MgCl2), radioactivity was measured with a liquid scintillation analyzer (2000CA, manufactured by Packard).
Ki=IC50/(1+([^3H]prostaglandin E2 concentration/Kd))
Furthermore, the dissociation constant (Kd value) was calculated by Scatchard analysis.

[1] = tested on: LPS-induced TNFα production of human peripheral blood mononuclear cells; experiment: Test of inhibition of LPS-induced TNFα production using human peripheral blood mononuclear cells; type: cell-based; details: read-out: IC50 value (nM) of TNFα production inhibitory action of human PBMC
Description: Test of Inhibition of LPS-Induced TNFα Production Using Human Peripheral Blood Mononuclear Cells
Peripheral blood collected in the presence of heparin from healthy subjects was diluted two-fold with PBS containing 2 (V/V) % FBS. Hemocyte separation solution (Ficoll Paque™, manufactured by GE Healthcare Science) was added to SepMate™-50 (manufactured by […] Technologies Inc.) followed by layering the diluted blood thereon. A peripheral blood mononuclear cell (hereinafter abbreviated as PBMC) layer was recovered by centrifuging for 10 minutes under conditions of 20° C. and 1200×g. The resulting PBMCs were further centrifuged and washed twice followed by suspending in RPMI1640 medium containing 1 (V/V) % FBS for use in the following test.
A test of inhibition of LPS-induced TNFα production was performed by partially modifying the method of Mary et al. (Journal of Pharmacology and Experimental Therapeutics, 284, 420 (1998)). 185 μL of PBMC suspension prepared to a final concentration of 5×10^5 cells/mL was added to a 96-well plate, subsequently 10 μL of RPMI1640 medium, containing 1 (V/V) % DMSO in which a test compound was dissolved, was added to each well (DMSO final concentration: 0.05 (V/V) %). RPMI1640 medium containing 1 (V/V) % DMSO was similarly added to a well to which test compounds had not been added. After incubating for 1 hour in a carbon dioxide gas incubator, 5 μL of RPMI1640 medium containing LPS (L2880-500MG, manufactured by Sigma) was added to each well (LPS final concentration: 100 ng/mL). 5 μL of RPMI1640 medium was added to a non-LPS stimulation well. After culturing for about 18 hours in a carbon dioxide gas incubator, the culture supernatant was recovered. The recovered culture supernatant was stored at −20° C. until measurement of TNFα content.
A sandwich ELISA kit (Quantikine DTA00c, manufactured by R&D Systems) was used to measure TNFα content. The TNFα content of each sample was calculated from a standard curve of E. coli-derived human recombinant TNF provided with the kit. TNFα production inhibition rate at each test compound concentration was calculated based on a value of 100% for the amount of TNFα produced by LPS in the case of only adding DMSO. The concentration of test compound that inhibited TNFα production by 50% was calculated as the IC50 value (nM) from the relationship between concentration of the added test compound and TNFα production inhibition rate of the test compound.

[2] = tested on: neutrophil infiltration of the rat lung; experiment: Inhibitory effect on neutrophil infiltration of rat lung (LPS intratracheal, BALF); type: in vivo; details: SD rats; approx. 0.1 mg/Kg intratracheally 1 hour prior to LPS; BALF 4 hours after LPS
Description: Inhibitory Effect on Neutrophil Infiltration of Rat Lung
A test of inhibition of neutrophil infiltration of the rat lung was performed by partially modifying the method of Spond et al. (Pulmonary Pharmacology and Therapeutics, 14, 157 (2001)). 25 μL (approx. 4 μg/Kg) of physiological saline solution containing LPS (L2880-500MG, manufactured by Sigma) (concentration: 0.04 mg/mL) was administered intratracheally under isoflurane inhalation anesthesia into SD rats fasted for about 16 hours (males, 7-8 weeks old, body weights: 240 g to 270 g (average: approx. 250 g), supplied by Charles River Laboratories, Japan). A Microsprayer™ (IA-1C-M, manufactured by PennCentury) was used for intratracheal administration.
Dosing solutions of the test compounds were prepared by dissolving the test compounds in a 0.1 mol/L or 1 mol/L aqueous sodium hydroxide solution followed by adding medium and neutralizing (final test compound concentration: 1 mg/mL). PBS or phosphate buffer solution (20 mM, pH=7.4) was used for the medium. 25 μL (approx. 0.1 mg/Kg) of the test compound solution prepared in this manner was administered intratracheally in the same manner as LPS administration 1 hour prior to administration of LPS. Medium was administered to a control group. Furthermore, 6 animals were used in the test compound dosing groups and control group, respectively. […]
The number of white blood cells present in the BALF suspension was measured using a multiparameter automated hematology analyzer (KX-21, manufactured by Sysmex). […] Next, after staining the cells using the Diff-Quik staining kit (Cat. No. 16920, manufactured by Sysmex), the number of neutrophils present among 300 white blood cells was measured under a light microscope (BH-2, manufactured by Olympus) followed by calculating the ratio of neutrophils to white blood cells (NR=the number of neutrophils among 300 white blood cells/300). […]
The number of neutrophils present in the BALF cell suspension was measured using a multiparameter automated hematology analyzer (XT-2000iV, manufactured by Sysmex). […]

[3] = membrane fraction of HEK293 cells expressing human EP2 receptor, [3H]prostaglandin E2 10 nM, 30° C., 60 minutes, read-out: Ki value (nM) of EP2 receptor binding action

Sequence of human EP2 receptor (P43116 whole entry): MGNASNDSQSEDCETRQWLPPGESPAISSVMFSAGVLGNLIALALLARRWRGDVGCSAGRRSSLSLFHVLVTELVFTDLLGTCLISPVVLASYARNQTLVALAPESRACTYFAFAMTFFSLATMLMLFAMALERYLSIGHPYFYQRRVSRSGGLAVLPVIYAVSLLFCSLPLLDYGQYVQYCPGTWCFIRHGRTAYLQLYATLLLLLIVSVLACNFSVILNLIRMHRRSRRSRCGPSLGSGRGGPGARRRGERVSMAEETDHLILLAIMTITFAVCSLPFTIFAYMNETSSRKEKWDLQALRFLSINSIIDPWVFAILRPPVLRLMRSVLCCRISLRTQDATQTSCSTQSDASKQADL

IC50 ([1]; LPS 100 ng/mL, culture about 18 hours, TNFα by ELISA) [nM] | Compound | Ki (human EP2 receptor; [3]) [nM] | Ki (human EP2 receptor) [nM] | IC50 ([1]; Homo sapiens, PBMC, 18 h) [nM] | Inhibition rate of pulmonary neutrophil infiltration [2] [%]
> 300 | CCCc1cccc(-c2ccc(CN(Cc3cccc(NCC(=O)O)n3)S(=O)(=O)c3ccccn3)cc2)c1 [Comparative Example 1, {6-[(3′-Propylbiphenyl-4-ylmethyl)(pyridin-2-ylsulfonyl)aminomethyl]pyridin-2-ylamino}acetate, reference compound] | 1.1 | – | – | –
– | CCOc1cccc(-c2ccc(CN(Cc3cccc(NCC(=O)O)n3)S(=O)(=O)c3ccccc3)cc2)c1 [Example 10, {6-[(Benzenesulfonyl)(3′-ethoxybiphenyl-4-ylmethyl)aminomethyl]pyridin-2-ylamino}acetic acid] | – | 0.97 | 18 | –
– | CC#Cc1cccc(-c2ccc(CN(Cc3cccc(NCC(=O)O)n3)S(=O)(=O)c3ccsc3)cc2)c1 [Example 18, (6-{[3′-(1-Propynyl)biphenyl-4-ylmethyl](thiophen-3-ylsulfonyl)-aminomethyl}pyridin-2-ylamino)acetic acid] | 0.99 | – | 3.2 | –
– | CCOc1cccc(-c2ccc(CN(Cc3cccc(NCC(=O)O)n3)S(=O)(=O)c3ccccn3)cc2)c1 [Example 7, {6-[(3′-Ethoxybiphenyl-4-ylmethyl)(pyridin-2-ylsulfonyl)aminomethyl]-pyridin-2-ylamino}acetic acid] | – | 0.61 | 20 | –
– | CCOc1cccc(-c2ccc(CN(Cc3cccc(NCC(=O)O)n3)S(=O)(=O)c3ccccn3)cc2)n1 [Example 12, (6-{[4-(6-Ethoxypyridin-2-yl)benzyl](pyridin-2-ylsulfonyl)aminomethyl}-pyridin-2-ylamino)acetic acid] | – | – | 16 | –
– | CC#Cc1cccc(-c2ccc(CN(Cc3cccc(NCC(=O)O)n3)S(=O)(=O)c3ccccc3)cc2)c1 [Example 16, (6-{(Benzenesulfonyl)[3′-(1-propynyl)biphenyl-4-ylmethyl]aminomethyl}-pyridin-2-ylamino)acetic acid] | – | 0.95 | 15 | 66
– | CC=Cc1cccc(-c2ccc(CN(Cc3cccc(NCC(=O)O)n3)S(=O)(=O)c3ccccn3)cc2)c1 [Example 2] | 0.53 | – | – | –
– | CC#Cc1cccc(-c2ccc(CN(Cc3cccc(NCC(=O)O)n3)S(=O)(=O)c3cccs3)cc2)c1 [Example 14, (6-{[3′-(1-Propynyl)biphenyl-4-ylmethyl](thiophen-2-ylsulfonyl)-aminomethyl}pyridin-2-ylamino)acetic acid] | 0.9 | – | 13 | 65
– | CCOc1cccc(-c2ccc(CN(Cc3cccc(NCC(=O)O)n3)S(=O)(=O)c3cccs3)cc2)c1 [Example 11, {6-[(3′-Ethoxybiphenyl-4-ylmethyl)(thiophen-2-ylsulfonyl)aminomethyl]-pyridin-2-ylamino}acetic acid] | – | – | 23 | –
– | CC#Cc1cccc(-c2ccc(CN(Cc3cccc(NCC(=O)O)n3)S(=O)(=O)c3ccccn3)cc2)c1 [Example 4, (6-{[3′-(1-Propynyl)biphenyl-4-ylmethyl](pyridin-2-ylsulfonyl)aminomethyl}-pyridin-2-ylamino)acetic acid] | 0.8 | – | 3.3 | 71
– | CCOc1cccc(-c2ccc(CN(Cc3cccc(NCC(=O)O)n3)S(=O)(=O)c3cccnc3)cc2)c1 [Example 9, {6-[(3′-Ethoxybiphenyl-4-ylmethyl)(pyridin-3-ylsulfonyl)aminomethyl]-pyridin-2-ylamino}acetic acid] | – | 0.8 | – | –
– | CC#Cc1cccc(-c2ccc(CN(Cc3cccc(NCC(=O)O)n3)S(=O)(=O)c3cccnc3)cc2)c1 [Example 6, (6-{[3′-(1-Propynyl)biphenyl-4-ylmethyl](pyridin-3-ylsulfonyl)aminomethyl}-pyridin-2-ylamino)acetic acid] | – | 0.75 | 9.4 | –
